Assay [1] deals with A549. In words: Cytotoxicity against human A549 cells assessed as growth inhibition after 72 hrs by CellTiter 96 Aqueous one solution cell proliferation assay. The following applies: for IC50: A549, 72 h. Type of assay: functional, cell-based.
The target in assay [2] is T1, Tubulin (Homo sapiens) (UniProt P68371+Q9H4B7+P0DPH7+P68366+Q13509+Q71U36+P04350+Q3ZCM7+P07437+P68363+Q9BQE3+Q6PEY2+Q13885+Q9BVA1+Q9BUF5). In words: Inhibition of tubulin (unknown origin) polymerization at 10 uM by fluorescence assay. It is filed as protein-complex assay.
Assay [3] relates to A549. In words: Induction of microtubule destabilization in human A549 cells at 45 nM by DAPI-staining-based fluorescence microscopic analysis. It is filed as cell-based.
Assay [4] has as its target T1, Tubulin (Homo sapiens). The assay can be described thus: Inhibition of tubulin (unknown origin) polymerization at 3 to 10 uM by fluorescence assay. Type of assay: protein-complex assay.
Assay [5] addresses T1, Tubulin (Homo sapiens). The assay can be described thus: Displacement of colchicine from tubulin (unknown origin) preincubated for 30 mins followed by colchicine addition measured after 30 mins by fluorescence assay. Type of assay: protein-complex assay.
In the next assay the test system is HeLa. The assay can be described thus: Cytotoxicity against human HeLa cells assessed as growth inhibition after 72 hrs by CellTiter 96 Aqueous one solution cell proliferation assay. Type of assay: functional, cell-based.
The test system of assay [6] is A549. In words: Cell cycle arrest in human A549 cells assessed as accumulation at G2/M phase at 1 uM after 24 hrs by propidium iodide staining-based flow cytometric analysis (reference value: 16.5%). It is filed as functional.
Assay [7] relates to A549. In words: Cell cycle arrest in human A549 cells assessed as accumulation at G1 phase at 3 uM after 24 hrs by propidium iodide staining-based flow cytometric analysis (reference value: 75.9%). It is filed as functional.
Assay [8] in a line: Cytotoxicity against human PC3 cells assessed as growth inhibition after 72 hrs by CellTiter 96 Aqueous one solution cell proliferation assay. Type of assay: functional, cell-based. The following applies: PC-3, 72 h.
The subject of assay [9] is A549. In words: Cell cycle arrest in human A549 cells assessed as accumulation at G2/M phase at 0.3 uM after 24 hrs by propidium iodide staining-based flow cytometric analysis (reference value: 16.5%). Type of assay: functional. A general note: A flow cytometer gives signals particle by particle.
A further assay concerns NCI-H460. In words: Cytotoxicity against human NCI-H460 cells assessed as growth inhibition after 72 hrs by CellTiter 96 Aqueous one solution cell proliferation assay. It is filed as functional, cell-based. The following applies: NCI-H460, 72 h.
In assay [10] the test system is A549. In words: Cell cycle arrest in human A549 cells assessed as accumulation at G1 phase at 1 uM after 24 hrs by propidium iodide staining-based flow cytometric analysis (reference value: 75.9%). Type of assay: functional.
Assay [11] concerns A549. The assay can be described thus: Cell cycle arrest in human A549 cells assessed as accumulation at G1 phase at 0.3 uM after 24 hrs by propidium iodide staining-based flow cytometric analysis (reference value: 75.9%). Type of assay: functional.
For a further assay, the system named is MCF7. In words: Cytotoxicity against human MCF7 cells assessed as growth inhibition after 72 hrs by CellTiter 96 Aqueous one solution cell proliferation assay. Type of assay: functional, cell-based. Conditions: MCF7, 72 h.
A short description of assay [12]: Cytotoxicity against human HCT116 cells assessed as growth inhibition after 72 hrs by CellTiter 96 Aqueous one solution cell proliferation assay. Type of assay: functional, cell-based. The following applies: HCT-116, 72 h.
Assay [13] concerns A549. In words: Cell cycle arrest in human A549 cells assessed as accumulation at G2/M phase at 3 uM after 24 hrs by propidium iodide staining-based flow cytometric analysis (reference value: 16.5%). It is filed as functional.
Assay [14] deals with T1, Tubulin (Homo sapiens). The following applies: 45 uM.
Description: Displacement of colchicine from tubulin (unknown origin) at 45 uM preincubated for 30 mins followed by colchicine addition measured after 30 mins by fluorescence assay
Assay [15] concerns A549. In words: Cell cycle arrest in human A549 cells assessed as accumulation at G2/M phase after 24 hrs by propidium iodide staining-based flow cytometric analysis. Type of assay: functional.
The test system of assay [16] is A549. The assay can be described thus: Induction of microtubule destabilization in human A549 cells at 4 uM by DAPI-staining-based fluorescence microscopic analysis. It is filed as cell-based.

This note sets out measurements from ChEMBL document CHEMBL3425417, “Synthesis and Structure-Activity Relationship Study of 1-Phenyl-1-(quinazolin-4-yl)ethanols as Anticancer Agents” (ACS Med Chem Lett, 2015).

A word on the IC50: it is the midpoint of a concentration-inhibition curve.

Active and inactive are the calls of the source. No cut-off for these calls is given here.

Consider `CC(O)(c1ccc(C(F)(F)F)cc1)c1ncnc2ccccc12` (configuration not stated), for which the IC50 with A549 [1] was over 25000 nM.
For `CC(O)(c1ccc(Cl)cc1)c1ncnc2ccccc12` (configuration not stated), in the assay with A549 [1], the IC50 was over 25000 nM.
The same measure, in the same setting: with `CCC(O)(c1ccc(OC)cc1)c1ncnc2ccccc12` (configuration not stated) the figure was 1800 nM.
For the compound `COc1ccc(C(C)(O)c2nc(-c3ccccc3)nc3ccccc23)cc1` (configuration not stated), at Tubulin (Homo sapiens) [2], the inhibition result was “Active”. The IC50 with A549 [1] was found to be 100 nM.
For the compound `COc1cc2c(c(OC)c1OC)-c1ccc(OC)c(=O)cc1[C@@H](NC(C)=O)CC2`, the result in the assay on A549 [3] was Active.
For `CC(O)(c1cccc(OCc2ccccc2)c1)c1ncnc2ccccc12` (configuration not stated), the IC50 in the assay with A549 [1] was over 25000 nM.
With `COc1ccc(C(C)(O)c2nc(OC)nc3ccccc23)cc1` (configuration not stated), the IC50 in the assay with A549 [1] was determined as 58 nM.
The same measure, in the same setting: the figure for `COc1ccc(C(C)(O)c2nc(-c3cccc(Cl)c3)nc3ccccc23)cc1` (configuration not stated) is 2100 nM; for `COc1ccc(C(C)(O)c2nc(N3CCN(c4ccc(F)cc4)CC3)nc3ccccc23)cc1` (configuration not stated) it is 1900 nM.
As for `COc1ccc(C(C)(O)c2ncnc3ccccc23)cc1` (single isomer, unassigned; (-)), in the assay with A549 [1], the “growth inhibition (GI)” value is “Active”. At Tubulin (Homo sapiens) [4], the inhibition entry was “Active”.
With `COc1ccc(C(C)(O)c2ncnc3ccccc23)cc1` (stereo in doubt; (+)-1a), the “growth inhibition (GI)” value in the assay on A549 [1] was “Active”. The inhibition entry at Tubulin (Homo sapiens) [4] was “Active”.
`CC[C@]1(O)C[C@@H]2CN(CCc3c([nH]c4ccccc34)[C@@](C(=O)OC)(c3cc4c(cc3OC)N(C)[C@H]3[C@@](O)(C(=O)OC)[C@H](OC(C)=O)[C@]5(CC)C=CCN6CC[C@]43[C@@H]65)C2)C1`: at Tubulin (Homo sapiens) [5], the inhibition entry is “inactive”.
In the case of `CC(O)(c1ccc(F)cc1)c1ncnc2ccccc12` (configuration not stated), in the assay on A549 [1], the IC50 is over 25000 nM.
On the same count and under the same terms, with `CN(C)c1ccc(C(C)(O)c2ncnc3ccccc23)cc1` (configuration not stated) the figure was 1300 nM.
Still for that read-out and setting: with `COc1ccc(C(C)(O)c2nc(Cl)nc3ccccc23)cc1` (configuration not stated) the figure was 27 nM.
On to `COc1ccc(C(C)(O)c2ncnc3ccccc23)cc1` (racemic) [listing 1 of 2 here], for which the IC50 in the assay with HeLa was found to be 100 nM; in [8], 100 nM; with NCI-H460, 100 nM; with A549 [1] it was 270 nM; in the assay on MCF7, 100 nM; in [12], 100 nM. Besides, the Activity with A549 [6] is 68.6%; in the assay with A549 [7] it was 18.3%; in the assay with A549 [9] it was 35.3%; in the assay on A549 [10], 23.7%; in the assay on A549 [11], 56.9%; in the assay on A549 [13] it was 75.9%.
Regarding `COc1ccc(C(C)(O)c2ncnc3ccccc23)cc1OC` (configuration not stated), the IC50 in the assay on A549 [1] is 21000 nM.
Still for that read-out and setting: with `COc1ccc(C(C)(O)c2nc(SC)nc3ccccc23)cc1` (configuration not stated) the figure was 67 nM; with `CCOc1ccc(C(=O)c2ncnc3ccccc23)cc1`, over 25000 nM; with `COc1ccc(C(O)c2ncnc3ccccc23)cc1` (configuration not stated), over 25000 nM.
On the same count and under the same terms, with `CSc1ccc(C(C)(O)c2ncnc3ccccc23)cc1` (configuration not stated) the figure was 340 nM; with `COc1ccc(C(C)(O)c2nc(N3CCCCC3)nc3ccccc23)cc1` (configuration not stated), 2700 nM; with `COc1ccc(C(O)(c2ncnc3ccccc23)C(F)(F)F)cc1` (configuration not stated), 1100 nM.
On the same count and under the same terms, the figure for `COc1ccc(C(C)(O)c2nc(Nc3ccccc3)nc3ccccc23)cc1` (configuration not stated) is 2700 nM; for `CC(O)(c1ccccc1)c1ncnc2ccccc12` (configuration not stated) it is over 25000 nM; for `CC(O)(c1ccc(OC(F)(F)F)cc1)c1ncnc2ccccc12` (configuration not stated) it is over 25000 nM.
For `COc1ccc(C(C)(O)c2nc(Oc3ccccc3)nc3ccccc23)cc1` (configuration not stated), the half-maximal inhibitory concentration (IC50) in the assay with A549 [1] came to 3300 nM.
For `COC(=O)Nc1nc2cc(C(=O)c3cccs3)ccc2[nH]1`, at Tubulin (Homo sapiens) [14], the inhibition result was “Active”.
Regarding `COc1ccc(C(C)(O)c2nc(-c3ccsc3)nc3ccccc23)cc1` (configuration not stated), the IC50 with A549 [1] is 35 nM.
For the compound `CNc1ccc(C(C)(O)c2ncnc3ccccc23)cc1` (configuration not stated), the IC50 in the assay on A549 [1] was found to be 4100 nM.
As to `COc1ccc(C(O)(Cc2ccccc2)c2ncnc3ccccc23)cc1` (configuration not stated), the IC50 in the assay on A549 [1] came out at 9800 nM.
The same measure, in the same setting: the figure for `CC(O)(c1cccc(O)c1)c1ncnc2ccccc12` (configuration not stated) is over 25000 nM; for `CCCOc1nc(C(C)(O)c2ccc(OC)cc2)c2ccccc2n1` (configuration not stated) it is 1200 nM.
Regarding `COc1ccc(C(C)(O)c2ncnc3ccccc23)cc1` (racemic) [listing 2 of 2 here], in the assay on A549 [15], the Activity entry was “Dose-dependent effect”. In addition, the result in the assay with A549 [16] was Active. Further, the inhibition result on Tubulin (Homo sapiens) [4] is “Active”. Also, the inhibition result at Tubulin (Homo sapiens) [5] is “Dose-dependent effect”.
On to `COc1ccc(C(C)(O)c2nc(N(C)C)nc3ccccc23)cc1` (configuration not stated), for which, in the assay with A549 [1], the IC50 stood at 210 nM.
On the same count and under the same terms, the figure for `C=CCOc1nc(C(C)(O)c2ccc(OC)cc2)c2ccccc2n1` (configuration not stated) is 410 nM; for `COc1ccc(C(=O)c2ncnc3ccccc23)cc1` it is 20000 nM.
The same measure, in the same setting: with `COc1cccc(C(C)(O)c2ncnc3ccccc23)c1` (configuration not stated) the figure was over 25000 nM.
Turning to `CCOc1ccc(C(C)(O)c2ncnc3ccccc23)cc1` (configuration not stated), the IC50 with A549 [1] was 300 nM.
Turning to `COc1ccc(C(C)(O)c2nc(-c3ccccc3Cl)nc3ccccc23)cc1` (configuration not stated), in the assay on A549 [1], the IC50 worked out at 780 nM.
With `COc1ccc(C(C)(O)c2nc(C(Cl)(Cl)Cl)nc3ccccc23)cc1` (configuration not stated), the IC50 in the assay on A549 [1] came out at 38 nM.
With `COc1ccc(C(C)(O)c2nc(-c3ccc(Cl)cc3)nc3ccccc23)cc1` (configuration not stated), in the assay with A549 [1], the IC50 was found to be 400 nM.
On the same count and under the same terms, with `COc1ccc(C(C)(O)c2nc(N3CCC(C)CC3)nc3ccccc23)cc1` (configuration not stated) the figure was 19000 nM.
For the compound `COc1ccc(C(C)(O)c2nc(=O)[nH]c3ccccc23)cc1` (configuration not stated), the IC50 in the assay on A549 [1] is over 25000 nM.
Consider `CCOc1nc(C(C)(O)c2ccc(OC)cc2)c2ccccc2n1` (configuration not stated), for which the IC50 in the assay with A549 [1] was found to be 340 nM.
Turning to `COc1ccc(C(C)(O)c2nc(N3CCOCC3)nc3ccccc23)cc1` (configuration not stated), the IC50 in the assay on A549 [1] came out at 170 nM.
Regarding `COc1cc(C(C)(O)c2ncnc3ccccc23)cc(OC)c1OC` (configuration not stated), in the assay on A549 [1], the IC50 was over 25000 nM.
Turning to `COc1ccc(C(C)(O)c2nc(C)nc3ccccc23)cc1` (configuration not stated), the IC50 with A549 [1] is 53 nM.
The same measure, in the same setting: the figure for `COc1ccc(C(C)(O)c2nc(OC)c3ccccc3n2)cc1` (configuration not stated) is 2000 nM.
For `CC(O)(c1ccc2c(c1)OCO2)c1ncnc2ccccc12` (configuration not stated), the IC50 with A549 [1] was 20000 nM.
